Experimental data from paper PMC11574108, “4-Furanylvinylquinoline derivative as a new scaffold for the design of oxidative stress initiator and glucose transporter inhibitor drugs” (Scientific Reports, 2024).
Where two headings read alike, the source gives them in different places.

Key:
CT-DNA = assay: Intercalation, spectrophotometric study on CT-DNA; type: binding, calf; settings: 18 µM CT-DNA, 1.5 h, 37 °C, absorption spectra
Method: Lyophilized calf-thymus DNA (CT-DNA; Sigma-Aldrich) was dissolved in 10 mM Tris-HCl (pH 7.9), mixed gently, and kept overnight at 4 °C. The purity of the CT-DNA solution was determined by measurement of the ratio of UV absorbance at 260 and 280 nm. […] The tested compound was dissolved in DMSO to give a concentration of 8.35 mM. This stock solution was used for preparing new solutions (25, 12.5, 6, and 3 µM) in 1 mL of 10 mM Tris-HCl (pH 7.9). Next, 18 µM CT-DNA was added to the prepared solutions, and the samples were incubated for 1.5 h at 37 °C with occasional vortexing. The measurements of the absorption spectra were performed using a Hitachi U-2900 spectrophotometer in the range of 200–500 nm. The obtained data were analysed using GraphPad Prism v.8.0 (USA).
To determine whether and to what extent the compound interacts with DNA, we also performed a spectrophotometric study on CT-DNA. […] (Fig. S2). Nevertheless, under the effect of stress-induced DNA damage in cells, […], which inhibited the CDK1 and cyclin B1 complex. This had the effect of arresting the cell cycle in the G2/M phase in an attempt to repair the DNA damages or induce apoptosis[29],[30]. Abnormal CDK1 activation is often thought to be connected with tumourigenesis. […]

HCT 116 p53+/+ spheroids = assay: 3D spheroid cell viability assay; type: cell-based, human; settings: 3D spheroids, CellTiter-Glo 3D, 72-h treatment, read-out: IC50 HCT 116 p53+/+ (3D model)
Method: The HCT 116 cell lines, AsPC-1, PANC-1 (5,000), and U-251 cells (8,000) in 100 µL of medium were seeded in 96-well ULA Corning spheroid microplates (Sigma-Aldrich) and incubated for 72 h at 37 °C to form spheroids. The medium from each well was then gently removed and freshly prepared solutions of 13 were added. The treated spheroids were incubated for the next 72-h. Afterward, cell viability assays were performed using CellTiter-Glo 3D Reagent (Promega) according to the manufacturer’s protocol. Briefly, CellTiter-Glo 3D Reagent was added in equal volume to the medium in each well. The plate was vigorously mixed for 5 min and then incubated for 25 min at room temperature. The luminescence was measured using a multiplate reader (Synergy 4, BioTek). The experiment for each sample was performed at least three times. The results from the assay are presented as IC50 values, which were calculated using GraphPad Prism v.8.0 (USA).
To confirm the cytotoxicity ranking, the viability of the cells was also estimated on a 3D spheroid model, which better represented a solid tumour. […] The cell lines that represented pancreatic cancer were less responsive to derivative 13, which was similar to the 2D model. […]

HCT 116 p53+/+ = assay: Intracellular ROS level measurement (CellROX Green); type: cell-based, human; settings: 1 µM, 24 h
Method: (§1) The cells (9,000 per well) were seeded in 96-well plates and treated with at freshly prepared 1 µM solution of 13 for 3, 6, 9, 12, and 24 h. The ROS levels were measured immediately according to the CellROX Green Reagent procedure. Additionally, the number of cells in each well during measurement was estimated using Hoechst 33,342 (Molecular Probes™). Briefly, after treatment the medium was removed and […] mixture of CellROX Green Reagent ([…]) and Hoechst 33,342 ([…]) was added to each well. The plates were incubated for 30 min at 37 °C in the dark, and the fluorescence of samples was then measured using a multiplate reader (Synergy 4, Bio Tek). Readings were performed at 485 nm excitation and 520 nm emission, as well as at 345 nm excitation and 485 nm emission for the CellROX Green Reagent and Hoechst 33,342, respectively. ROS levels were calculated as the percentage relative to the untreated cell levels (control). The experiments were carried out three times.
(§2) To determine the ROS level, the fluorescent CellROX Green Reagent was used, being measured by a spectroscopic multi-plate reader. […] The ROS level was several percent higher compared to the control after only 3 h. After 24 h the amount of ROS increased by as much as 50% relative to the untreated cells. Similar observations were made in the case of the HCT 116 p53^+/+ cells. However, the generation of ROS was less pronounced, especially at the first time points. Nevertheless, after 24 h, the level of ROS was about 40% higher. […] The highest (20% growth) occurred after 9 h and 24 h. […] The intracellular ROS levels are rapidly regulated by activated p53, which initially decreases and then subsequently increases them[42]. The weaker response toward ROS generation in these cells might have been caused by the fact that U-251 cells are resistant to exposure to oxidative stress. […] Additionally, cancer cells with a p53 mutation have a higher level of ROS than those with the wild type. Some p53 mutants can gain oncogenic features that are described as “gain-of-function” (GOF), among them being U-251 cells. […]

HCT 116 p53-/- = assay: as above; type: cell-based, human; settings: 1 µM, 24 h
Method: as §1, §2

U-251 = assay: as above; type: cell-based, human; settings: 1 µM, after 9 h and 24 h
Method: as §1, §2

## O=[N+]([O-])c1ccc(/C=C/c2ccnc3ccccc23)o1 [Compound 13]
CT-DNA
  hypochromism: 10.97%
HCT 116 p53+/+ spheroids
  IC50: 1160 ± 190 nM
HCT 116 p53+/+ spheroids; Homo sapiens, HCT-116, 72 h
  IC50: ~1000 nM
HCT 116 p53+/+
  ROS level increase relative to untreated cells: about 40%
HCT 116 p53-/-
  ROS level increase relative to untreated cells: 50%
U-251
  ROS level increase relative to untreated cells: 20%
